In brackets after ≈: the same amount, converted by molar mass. A value given as a limit tells only on which side of the number the result lay.

The EC50 is the midpoint of the concentration-response curve. A low value points to a more potent agent. A word on the MIC80: it is the lowest concentration that inhibits either 80% of growth or 80% of the strains tested, depending on the study. For orientation: MIC50 means the lowest concentration that inhibits either 50% of growth or 50% of the strains tested, depending on the study.

System in the first data set: not listed separately
The data set is described as follows: Cytotoxicity against human HUVEC cells incubated for 48 hrs by CCK-8 method. The format is toxicity, cell-based.
Conditions: not given
On the technique in general: Formazan colour is commonly taken as a measure of viable cells.
`Cc1c(-n2c(-c3ccc(Br)cc3)cs/c2=N\c2ccc3ccccc3c2)c(=O)n(-c2ccccc2)n1C` showed an EC50 at 48 h greater than 50 µg/mL.

In turn, `Cc1c(-n2c(-c3ccc(N(C)C)cc3)cs/c2=N\c2ccccc2)c(=O)n(-c2ccccc2)n1C` came in with an EC50 at 48 h greater than 50 µg/mL.

In the next data set the test system is Candida albicans. The data set is described as follows: Antifungal activity against Candida albicans SC5314 assessed as inhibition of fungal growth incubated for 24 hrs by CLSI protocol based broth microdilution method. It is filed as functional.
Conditions: not given
For `Cc1c(-n2c(-c3ccc(F)cc3)cs/c2=N\c2ccc(Br)cc2)c(=O)n(-c2ccccc2)n1C`, the MIC80 is greater than 128 µg/mL.

As to `Cc1c(-n2c(-c3ccc(I)cc3)cs/c2=N\c2ccccc2)c(=O)n(-c2ccccc2)n1C`, the MIC80 was greater than 128 µg/mL.

With `C=CC(=O)Nc1cccc(-c2cs/c(=N\c3ccccc3)n2-c2c(C)n(C)n(-c3ccccc3)c2=O)c1`, the MIC80 was greater than 128 µg/mL.

For the molecule `Cc1c(-n2c(-c3ccc(Br)cc3)cs/c2=N\c2ccc3ccccc3c2)c(=O)n(-c2ccccc2)n1C`, the MIC80 was greater than 128 µg/mL.

For `Cc1c(-n2c(-c3ccc(Br)cc3)cs/c2=N\c2cccnc2)c(=O)n(-c2ccccc2)n1C`, the MIC80 is greater than 128 µg/mL.

`COc1ccc2cc(-c3cs/c(=N\c4ccccc4)n3-c3c(C)n(C)n(-c4ccccc4)c3=O)ccc2c1`: the MIC80 is greater than 128 µg/mL.

`Cc1c(-n2c(-c3nccs3)cs/c2=N\c2ccccc2)c(=O)n(-c2ccccc2)n1C`: the MIC80 was greater than 128 µg/mL.

Regarding `Cc1c(-n2c(-c3cc4ccccc4oc3=O)cs/c2=N\c2ccccc2)c(=O)n(-c2ccccc2)n1C`, the MIC80 was greater than 128 µg/mL.

`Cc1c(-n2c(-c3cccc(F)c3)cs/c2=N\c2ccccc2)c(=O)n(-c2ccccc2)n1C`: the MIC80 is greater than 128 µg/mL.

As for `Cc1c(-n2c(-c3ccccc3)cs/c2=N\c2ccccc2)c(=O)n(-c2ccccc2)n1C`, the MIC80 was greater than 128 µg/mL.

`Cc1c(-n2c(-c3ccc(O)cc3)cs/c2=N\c2ccc(Br)cc2)c(=O)n(-c2ccccc2)n1C`: the MIC80 is greater than 128 µg/mL.

Turning to `Cc1c(-n2c(-c3ccc(N(C)C)cc3)cs/c2=N\c2ccccc2)c(=O)n(-c2ccccc2)n1C`, the MIC80 was greater than 128 µg/mL.

For `Cc1c(-n2c(-c3ccc(C(F)(F)F)cc3)cs/c2=N\c2ccc(Br)cc2)c(=O)n(-c2ccccc2)n1C`, the MIC80 is greater than 128 µg/mL.

Turning to `Cc1c(-n2c(-c3ccc(Br)cc3)cs/c2=N\c2ccc(C(F)(F)F)cc2)c(=O)n(-c2ccccc2)n1C`, the MIC80 is greater than 128 µg/mL.

With `COc1cc(-c2cs/c(=N\c3ccccc3)n2-c2c(C)n(C)n(-c3ccccc3)c2=O)cc(OC)c1OC`, the MIC80 was greater than 128 µg/mL.

Take `Cc1c(-n2c(-c3cccc([N+](=O)[O-])c3)cs/c2=N\c2ccccc2)c(=O)n(-c2ccccc2)n1C`: the MIC80 is greater than 128 µg/mL.

As to `Cc1c(-n2c(C3CC3)cs/c2=N\c2ccccc2)c(=O)n(-c2ccccc2)n1C`, the MIC80 is greater than 128 µg/mL.

On to `Cc1c(-n2c(-c3ccc4ccc5cccc6ccc3c4c56)cs/c2=N\c2ccccc2)c(=O)n(-c2ccccc2)n1C`, for which the MIC80 was greater than 128 µg/mL.

With `Cc1c(-n2c(C34CC5CC(CC(C5)C3)C4)cs/c2=N\c2ccccc2)c(=O)n(-c2ccccc2)n1C`, the MIC80 is greater than 128 µg/mL.

As for `Cc1c(-n2c(-c3cccs3)cs/c2=N\c2ccccc2)c(=O)n(-c2ccccc2)n1C`, the MIC80 is greater than 128 µg/mL.

Regarding `Cc1c(-n2c(C3CCN(C(=O)OC(C)(C)C)CC3)cs/c2=N\c2ccccc2)c(=O)n(-c2ccccc2)n1C`, the MIC80 was greater than 128 µg/mL.

Regarding `Cc1c(-n2c(-c3ccc(-c4ccccc4)cc3)cs/c2=N\c2ccccc2)c(=O)n(-c2ccccc2)n1C`, the MIC80 is greater than 128 µg/mL.

Turning to `C#CCOc1ccc(-c2cs/c(=N\c3ccccc3)n2-c2c(C)n(C)n(-c3ccccc3)c2=O)cc1`, the MIC80 was greater than 128 µg/mL.

For `COc1ccc(-c2cs/c(=N\c3ccccc3)n2-c2c(C)n(C)n(-c3ccccc3)c2=O)cc1`, the MIC80 is greater than 128 µg/mL.

With `Cc1c(-n2c(-c3ccncc3)cs/c2=N\c2ccc(Br)cc2)c(=O)n(-c2ccccc2)n1C`, the MIC80 was greater than 128 µg/mL.

Take `Cc1c(-n2c(-c3ccc(O)c(C=O)c3)cs/c2=N\c2ccc(Br)cc2)c(=O)n(-c2ccccc2)n1C`: the MIC80 was greater than 128 µg/mL.

In the case of `Cc1c(-n2c(-c3ccc(C(F)(F)F)cc3)cs/c2=N\c2ccccc2)c(=O)n(-c2ccccc2)n1C`, the MIC80 is greater than 128 µg/mL.

`Cc1c(-n2c(-c3ccc(Cl)cc3)cs/c2=N\c2ccccc2)c(=O)n(-c2ccccc2)n1C`: the MIC80 was greater than 128 µg/mL.

System in the next data set: not listed separately
Kind of data set: Hemolytic activity in mouse RBC assessed as hemolysis at 2 to 32 ug/ml incubated for 60 mins by absorbance based analysis relative to control. It is filed as toxicity, cell-based, Erythrocyte. To be noted: mouse red blood cells, at 2 to 32 µg/mL, dose 2-32 µg/ml, read-out: Activity.
As for `Cc1c(-n2c(-c3ccc(Br)cc3)cs/c2=N\c2ccc3ccccc3c2)c(=O)n(-c2ccccc2)n1C`, the hemolysis at 1 h is less than 1%.

`Cc1c(-n2c(-c3ccc(N(C)C)cc3)cs/c2=N\c2ccccc2)c(=O)n(-c2ccccc2)n1C`: the hemolysis at 1 h was less than 1%.

System in a further data set: not listed separately
Kind of data set: Cytotoxicity against human BEAS-2B cells incubated for 48 hrs by CCK-8 method. The format is toxicity, cell-based.
Conditions: not given
The molecule `Cc1c(-n2c(-c3ccc(Br)cc3)cs/c2=N\c2ccc3ccccc3c2)c(=O)n(-c2ccccc2)n1C` showed an EC50 at 48 h greater than 50 µg/mL.

Molecule `Cc1c(-n2c(-c3ccc(N(C)C)cc3)cs/c2=N\c2ccccc2)c(=O)n(-c2ccccc2)n1C` returned an EC50 at 48 h greater than 50 µg/mL.

The subject of a further data set is Candida albicans. The data set is described as follows: Antifungal activity against Candida albicans SC5314 assessed as inhibition of hyphae growth incubated for 24 hrs by CLSI protocol based broth microdilution method. It is filed as functional.
Conditions: not given
Background: Broth dilution looks for growth in wells or tubes with falling amounts of substance.
For `Cc1c(-n2c(-c3ccc(F)cc3)cs/c2=N\c2ccc(Br)cc2)c(=O)n(-c2ccccc2)n1C`, the MIC50 is greater than 128 µg/mL.

As to `Cc1c(-n2c(-c3ccc(I)cc3)cs/c2=N\c2ccccc2)c(=O)n(-c2ccccc2)n1C`, the MIC50 was greater than 128 µg/mL.

On to `C=CC(=O)Nc1cccc(-c2cs/c(=N\c3ccccc3)n2-c2c(C)n(C)n(-c3ccccc3)c2=O)c1`, for which the MIC50 is greater than 128 µg/mL.

For the molecule `Cc1c(-n2c(-c3ccc(Br)cc3)cs/c2=N\c2ccc3ccccc3c2)c(=O)n(-c2ccccc2)n1C`, the MIC50 worked out at 1 µg/mL (≈ 1.76 µM).

In the case of `Cc1c(-n2c(-c3ccc(Br)cc3)cs/c2=N\c2cccnc2)c(=O)n(-c2ccccc2)n1C`, the MIC50 is greater than 128 µg/mL.

With `COc1ccc2cc(-c3cs/c(=N\c4ccccc4)n3-c3c(C)n(C)n(-c4ccccc4)c3=O)ccc2c1`, the MIC50 was greater than 128 µg/mL.

Regarding `Cc1c(-n2c(-c3nccs3)cs/c2=N\c2ccccc2)c(=O)n(-c2ccccc2)n1C`, the MIC50 is greater than 128 µg/mL.

With `Cc1c(-n2c(-c3cc4ccccc4oc3=O)cs/c2=N\c2ccccc2)c(=O)n(-c2ccccc2)n1C`, the MIC50 was greater than 128 µg/mL.

Take `Cc1c(-n2c(-c3cccc(F)c3)cs/c2=N\c2ccccc2)c(=O)n(-c2ccccc2)n1C`: the MIC50 is greater than 128 µg/mL.

For the molecule `Cc1c(-n2c(-c3ccccc3)cs/c2=N\c2ccccc2)c(=O)n(-c2ccccc2)n1C`, the MIC50 was greater than 128 µg/mL.

With `Cc1c(-n2c(-c3ccc(O)cc3)cs/c2=N\c2ccc(Br)cc2)c(=O)n(-c2ccccc2)n1C`, the MIC50 was greater than 128 µg/mL.

Consider `Cc1c(-n2c(-c3ccc(N(C)C)cc3)cs/c2=N\c2ccccc2)c(=O)n(-c2ccccc2)n1C`, for which the MIC50 amounted to 2 µg/mL (≈ 4.15 µM).

Turning to `Cc1c(-n2c(-c3ccc(C(F)(F)F)cc3)cs/c2=N\c2ccc(Br)cc2)c(=O)n(-c2ccccc2)n1C`, the MIC50 was greater than 128 µg/mL.

`Cc1c(-n2c(-c3ccc(Br)cc3)cs/c2=N\c2ccc(C(F)(F)F)cc2)c(=O)n(-c2ccccc2)n1C`: the MIC50 was 8 µg/mL (≈ 13.7 µM).

Take `COc1cc(-c2cs/c(=N\c3ccccc3)n2-c2c(C)n(C)n(-c3ccccc3)c2=O)cc(OC)c1OC`: the MIC50 is greater than 128 µg/mL.

As to `Cc1c(-n2c(-c3cccc([N+](=O)[O-])c3)cs/c2=N\c2ccccc2)c(=O)n(-c2ccccc2)n1C`, the MIC50 is greater than 128 µg/mL.

With `Cc1c(-n2c(C3CC3)cs/c2=N\c2ccccc2)c(=O)n(-c2ccccc2)n1C`, the MIC50 is greater than 128 µg/mL.

Turning to `Cc1c(-n2c(-c3ccc4ccc5cccc6ccc3c4c56)cs/c2=N\c2ccccc2)c(=O)n(-c2ccccc2)n1C`, the MIC50 was greater than 128 µg/mL.

Turning to `Cc1c(-n2c(C34CC5CC(CC(C5)C3)C4)cs/c2=N\c2ccccc2)c(=O)n(-c2ccccc2)n1C`, the MIC50 is greater than 128 µg/mL.

As for `Cc1c(-n2c(-c3cccs3)cs/c2=N\c2ccccc2)c(=O)n(-c2ccccc2)n1C`, the MIC50 is greater than 128 µg/mL.

Regarding `Cc1c(-n2c(C3CCN(C(=O)OC(C)(C)C)CC3)cs/c2=N\c2ccccc2)c(=O)n(-c2ccccc2)n1C`, the MIC50 is greater than 128 µg/mL.

Regarding `Cc1c(-n2c(-c3ccc(-c4ccccc4)cc3)cs/c2=N\c2ccccc2)c(=O)n(-c2ccccc2)n1C`, the MIC50 was greater than 128 µg/mL.

Regarding `C#CCOc1ccc(-c2cs/c(=N\c3ccccc3)n2-c2c(C)n(C)n(-c3ccccc3)c2=O)cc1`, the MIC50 is greater than 128 µg/mL.

As to `COc1ccc(-c2cs/c(=N\c3ccccc3)n2-c2c(C)n(C)n(-c3ccccc3)c2=O)cc1`, the MIC50 was greater than 128 µg/mL.

For the molecule `Cc1c(-n2c(-c3ccncc3)cs/c2=N\c2ccc(Br)cc2)c(=O)n(-c2ccccc2)n1C`, the MIC50 was greater than 128 µg/mL.

As to `Cc1c(-n2c(-c3ccc(O)c(C=O)c3)cs/c2=N\c2ccc(Br)cc2)c(=O)n(-c2ccccc2)n1C`, the MIC50 is greater than 128 µg/mL.

On to `Cc1c(-n2c(-c3ccc(C(F)(F)F)cc3)cs/c2=N\c2ccccc2)c(=O)n(-c2ccccc2)n1C`, for which the MIC50 came to 4 µg/mL (≈ 7.9 µM).

On to `Cc1c(-n2c(-c3ccc(Cl)cc3)cs/c2=N\c2ccccc2)c(=O)n(-c2ccccc2)n1C`, for which the MIC50 stood at 4 µg/mL (≈ 8.46 µM).
